Results published in patent US20240383908A1, “SYNTHESIS AND APPLICATION OF PHOSPHATASE DEGRADER” (HINOVA PHARMACEUTICALS INC., priority 2021, published 2024).
Structures can show the parent of a compound that is named as a salt.

target: T1, SHP2 protein (Homo sapiens, UniProt Q06124); experiment: Degradation activity on SHP2 protein in MIA Paca-2 cells (Western blot, DC50); format: cell-based; set-up: endogenous in cells; host or cells: MIA Paca-2 cells; conditions: read-out: Degradation activity for differenct cell lines MIA Paca-2 (DC50)
T1 sequence (Q06124 1-593): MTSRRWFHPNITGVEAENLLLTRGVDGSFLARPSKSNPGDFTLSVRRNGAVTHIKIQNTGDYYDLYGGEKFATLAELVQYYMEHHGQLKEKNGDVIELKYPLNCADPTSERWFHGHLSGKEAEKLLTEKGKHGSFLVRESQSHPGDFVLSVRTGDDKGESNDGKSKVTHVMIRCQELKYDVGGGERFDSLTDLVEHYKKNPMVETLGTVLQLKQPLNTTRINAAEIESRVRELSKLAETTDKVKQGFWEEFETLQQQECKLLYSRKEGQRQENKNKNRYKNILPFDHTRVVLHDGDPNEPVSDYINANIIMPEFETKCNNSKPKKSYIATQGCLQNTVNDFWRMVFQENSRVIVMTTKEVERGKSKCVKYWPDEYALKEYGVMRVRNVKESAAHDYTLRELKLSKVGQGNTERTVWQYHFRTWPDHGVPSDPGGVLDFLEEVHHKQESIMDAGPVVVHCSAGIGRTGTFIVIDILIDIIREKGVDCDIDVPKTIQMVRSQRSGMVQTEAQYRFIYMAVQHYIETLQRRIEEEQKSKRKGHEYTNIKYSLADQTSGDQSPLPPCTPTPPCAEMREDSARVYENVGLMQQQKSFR
Outline: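 Cells were treated 24 h at 37 °C with compound (0.1–100 nM final, 0.1% DMSO). SHP2 was measured by Western blot with GAPDH as loading control, densitometry normalized to DMSO (100%). DC50, the concentration giving 50% degradation, came from a dose-response fit.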

DC50 [nM] | Structure (SMILES)
< 100 | C[C@@H]1OCC2(CCN(c3cnc(Sc4cccc(NC(=O)c5ccc(N6CCC(N7CC=C(c8cnc(C(=O)NCc9ccc%10c(c9)CN(C9CCC(=O)NC9=O)C%10=O)cc8Cl)CC7)CC6)c(F)c5)c4)cn3)CC2)[C@@H]1N (stereo partly drawn) [Compound 460]
< 100 | Cc1nc(C(=O)NCc2ccc3c(c2)CN(C2CCC(=O)NC2=O)C3=O)ccc1C1=CCN(C2CCN(c3ccc(C(=O)Nc4cccc(Sc5cnc(N6CCC7(CC6)CO[C@@H](C)[C@H]7N)cn5)c4)cc3F)CC2)CC1 (stereo partly drawn) [Compound 461, N-{[2-(2,6-oxohexahydropyridin-3-yl)-1-oxo-2,3-dihydro-1H-isoindol-5-yl]methyl}-5-(1-{1-[2-fluoro-4-({[3-({5-[(3S,4S)-4-amino-3-methyl-8-aza-2-oxaspiro[4.5]decan-8-yl]pyrazin-2-yl}thio)phenyl]amino}carbonyl)phenyl]hexahydropyridine-4-yl}-1,2,3,6-tetrahydropyridin-4-yl)-6-methylpyridine-2-formamide hydrochloride]
> 1000 | Cc1cc(C2=CCN(C3CCN(c4ccc(C(=O)Nc5cccc(Sc6cnc(N7CCC8(CC7)CO[C@@H](C)[C@H]8N)cn6)c5)cc4F)CC3)CC2)cnc1C(=O)NCc1ccc2c(c1)CN(C1CCC(=O)NC1=O)C2=O (stereo partly drawn) [Compound 462]
> 1000 | C[C@@H]1OCC2(CCN(c3cnc(Sc4cccc(NC(=O)c5ccc(N6CCC(N7CC=C(c8ccc(C(=O)NCc9ccc%10c(c9)CN(C9CCC(=O)NC9=O)C%10=O)nc8Cl)CC7)CC6)c(F)c5)c4)cn3)CC2)[C@@H]1N (stereo partly drawn) [Compound 463]
< 100 | C[C@@H]1OCC2(CCN(c3cnc(Sc4cccc(NC(=O)c5ccc(N6CCC(N7CC=C(c8cnc(C(=O)NCc9ccc%10c(c9)CN(C9CCC(=O)NC9=O)C%10=O)c(F)c8)CC7)CC6)c(F)c5)c4)cn3)CC2)[C@@H]1N (stereo partly drawn) [Compound 464]
< 100 | C[C@@H]1OCC2(CCN(c3cnc(Sc4cccc(NC(=O)c5ccc(N6CCC(N7CC=C(c8ncc(C(=O)NCc9ccc%10c(c9)CN(C9CCC(=O)NC9=O)C%10=O)cc8F)CC7)CC6)c(F)c5)c4)cn3)CC2)[C@@H]1N (stereo partly drawn) [Compound 466]
< 100 | Cc1cc(N2CCC(N3CC=C(c4ccc(C(=O)NCc5ccc6c(c5)CN(C5CCC(=O)NC5=O)C6=O)nc4F)CC3)CC2)ccc1C(=O)Nc1cccc(Sc2cnc(N3CCC(C)(N)CC3)cn2)c1 (stereo not drawn) [Compound 468]
100 to 1000 | Cc1cc(C(=O)Nc2cccc(Sc3cnc(N4CCC(C)(N)CC4)cn3)c2)ccc1N1CCC(N2CC=C(c3ccc(C(=O)NCc4ccc5c(c4)CN(C4CCC(=O)NC4=O)C5=O)nc3F)CC2)CC1 (stereo not drawn) [Compound 469]
100 to 1000 | Cc1cc(C(=O)NCc2ccc3c(c2)CN(C2CCC(=O)NC2=O)C3=O)ncc1C1=CCN(C2CCN(c3ccc(C(=O)Nc4cccc(Sc5cnc(N6CCC(C)(N)CC6)cn5)c4)cc3F)CC2)CC1 (stereo not drawn) [Compound 470]
100 to 1000 | CC1(N)CCN(c2cnc(Sc3cccc(NC(=O)c4cc(F)c(N5CCC(N6CC=C(c7ccc(C(=O)NCc8ccc9c(c8)CN(C8CCC(=O)NC8=O)C9=O)nc7)CC6)CC5)c(F)c4)c3)cn2)CC1 (stereo not drawn) [Compound 471]
100 to 1000 | C[C@@H]1OCC2(CCN(c3cnc(Sc4cccc(NC(=O)c5ccc(N6CCC(N7CC=C(c8ccc(C(=O)NCc9ccc%10c(c9)CN(C9CCC(=O)NC9=O)C%10=O)c(F)n8)CC7)CC6)c(F)c5)c4)cn3)CC2)[C@@H]1N (stereo partly drawn) [Compound 472]
< 100 | C[C@@H]1OCC2(CCN(c3cnc(Sc4cccc(NC(=O)C5CC6(C5)CC(N5CC=C(c7ccc(C(=O)NCc8ccc9c(c8)CN(C8CCC(=O)NC8=O)C9=O)nc7)CC5)C6)c4)cn3)CC2)[C@@H]1N (stereo partly drawn) [Compound 473]
< 100 | C[C@@H]1OCC2(CCN(c3cnc(Sc4cccc(NC(=O)C5CCC(N6CC=C(c7ccc(C(=O)NCc8ccc9c(c8)CN(C8CCC(=O)NC8=O)C9=O)nc7)CC6)CC5)c4)cn3)CC2)[C@@H]1N (stereo partly drawn) [Compound 474]
> 1000 | C[C@@H]1OCC2(CCN(c3cnc(Sc4cccc(NC(=O)C5CC(N6CCN(c7ccc(C(=O)NCc8ccc9c(c8)CN(C8CCC(=O)NC8=O)C9=O)nn7)CC6)C5)c4)cn3)CC2)[C@@H]1N (stereo partly drawn) [Compound 475]
> 1000 | C[C@@H]1OCC2(CCN(c3cnc(Sc4cccc(NC(=O)C5CCC(N6CCN(c7ccc(C(=O)NCc8ccc9c(c8)CN(C8CCC(=O)NC8=O)C9=O)nn7)CC6)CC5)c4)cn3)CC2)[C@@H]1N (stereo partly drawn) [Compound 476]
< 100 | C[C@@H]1OCC2(CCN(c3cnc(Sc4cccc(NC(=O)C5CC(N6CC=C(c7ccc(C(=O)NCc8ccc9c(c8)CN(C8CCC(=O)NC8=O)C9=O)nc7)CC6)C5)c4)cn3)CC2)[C@@H]1N (stereo partly drawn) [Compound 477]
100 to 1000 | C[C@@H]1OCC2(CCN(c3cnc(Sc4cccc(NC(=O)c5ccc(N6CCC(N7CC=C(c8ccc(C(=O)NCc9ccc%10c(c9)CN(C9CCC(=O)NC9=O)C%10=O)c(Cl)c8)CC7)CC6)c(F)c5)c4)cn3)CC2)[C@@H]1N (stereo partly drawn) [Compound 479]

DC50 [nM] | Structure (SMILES)
< 100 | Cc1cc(C(=O)NCc2ccc3c(c2)CN(C2CCC(=O)NC2=O)C3=O)ncc1C1=CCN(C2CCN(c3ccc(C(=O)Nc4cccc(Sc5cnc(N6CCC(C)(N)CC6)cn5)c4)cc3)CC2)CC1 (stereo not drawn) [Compound 480]
< 100 | CC1(N)CCN(c2cnc(Sc3cccc(NC(=O)c4ccc(N5CCC(N6CC=C(c7ccc(C(=O)NCc8ccc9c(c8)CN(C8CCC(=O)NC8=O)C9=O)nc7F)CC6)CC5)cc4)c3)cn2)CC1 (stereo not drawn) [Compound 481]
< 100 | C[C@@H]1OCC2(CCN(c3cnc(Sc4cccc(NC(=O)c5ccc(N6CCC(N7CC=C(c8ccc(C(=O)NCc9ccc%10c(c9)CN(C9CCC(=O)NC9=O)C%10=O)nc8F)CC7)CC6)c(F)c5)c4)cn3)CC2)[C@@H]1N (stereo partly drawn) [Compound 483, 1′-(1-(4-((3-((5-((3S,4S)-4-amino-3-methyl-2-oxa-8-azaspiro[4.5]decan-8-yl)pyrazin-2-yl)thio)phenyl)aminoformyl)-2-fluorophenyl)piperidin-4-yl)-N-((2-(2,6-dioxopiperidin-3-yl)-1-oxoisoindol-5-yl)methyl)-2-fluoro-1′,2′,3′,6′-tetrahydro-[3,4′-bipyridine]-6-formamide hydrochloride]
< 100 | CC1(N)CCN(c2cnc(Sc3cccc(NC(=O)c4ccc(N5CCC(N6CCN(c7cnc(C(=O)NCc8ccc9c(c8)CN(C8CCC(=O)NC8=O)C9=O)cc7Cl)CC6)CC5)nc4)c3)cn2)CC1 (stereo not drawn) [Compound 484]
< 100 | Cc1cc(C(=O)Nc2cccc(Sc3cnc(N4CCC(C)(N)CC4)cn3)c2)cc(C)c1N1CCC(N2CC=C(c3ccc(C(=O)NCc4ccc5c(c4)CN(C4CCC(=O)NC4=O)C5=O)nc3)CC2)CC1 (stereo not drawn) [Compound 486]
< 100 | Cc1cc(C2=CCN(C3CCN(c4ccc(C(=O)Nc5cccc(Sc6cnc(N7CCC8(CC7)CO[C@@H](C)[C@H]8N)cn6)c5)cc4F)CC3)CC2)ncc1C(=O)NCc1ccc2c(c1)CN(C1CCC(=O)NC1=O)C2=O (stereo partly drawn) [Compound 488]
> 1000 | C[C@@H]1OCC2(CCN(c3cnc(Sc4cccc(NC(=O)C5CCC(N6CC7(CCN(c8ccc(C(=O)NCc9ccc%10c(c9)CN(C9CCC(=O)NC9=O)C%10=O)cn8)C7)C6)CC5)c4)cn3)CC2)[C@@H]1N (stereo partly drawn) [Compound 489]
100 to 1000 | C[C@@H]1OCC2(CCN(c3cnc(Sc4cccc(NC(=O)c5ccc(CN6CC7(CCN(c8ccc(C(=O)NCc9ccc%10c(c9)CN(C9CCC(=O)NC9=O)C%10=O)cn8)C7)C6)cc5)c4)cn3)CC2)[C@@H]1N (stereo partly drawn) [Compound 490]
> 1000 | CC1(N)CCN(c2cnc(Sc3cccc(NC(=O)c4ccc(N5CCC(N6CCN(c7nnc(C(=O)NCc8ccc9c(c8)CN(C8CCC(=O)NC8=O)C9=O)cc7Cl)CC6)CC5)cc4)c3)cn2)CC1 (stereo not drawn) [Compound 491]
< 100 | CC1(N)CCN(c2cnc(Sc3cccc(NC(=O)c4ccc(N5CCC(N6CCN(c7nnc(C(=O)NCc8ccc9c(c8)CN(C8CCC(=O)NC8=O)C9=O)cc7Cl)CC6)CC5)nc4)c3)cn2)CC1 (stereo not drawn) [Compound 492]
< 100 | CC1(N)CCN(c2cnc(Sc3cccc(NC(=O)c4ccc(N5CCC(N6CCN(c7nnc(C(=O)NCc8ccc9c(c8)CN(C8CCC(=O)NC8=O)C9=O)cc7Cl)CC6)CC5)c(F)c4)c3)cn2)CC1 (stereo not drawn) [Compound 493]
< 100 | CC1(N)CCN(c2cnc(Sc3cccc(NC(=O)c4ccc(N5CCC(N6CCN(c7nnc(C(=O)NCc8ccc9c(c8)CN(C8CCC(=O)NC8=O)C9=O)cc7Cl)CC6)CC5)cc4F)c3)cn2)CC1 (stereo not drawn) [Compound 494]
< 100 | Cc1cc(C(=O)Nc2cccc(Sc3cnc(N4CCC(C)(N)CC4)cn3)c2)ccc1N1CCC(N2CCN(c3cnc(C(=O)NCc4ccc5c(c4)CN(C4CCC(=O)NC4=O)C5=O)cc3Cl)CC2)CC1 (stereo not drawn) [Compound 495]
< 100 | CC1(N)CCN(c2cnc(Sc3cccc(NC(=O)c4ccc(N5CCC(N6CCN(c7cnc(C(=O)NCc8ccc9c(c8)CN(C8CCC(=O)NC8=O)C9=O)cc7Cl)CC6)CC5)c(F)c4)c3)cn2)CC1 (stereo not drawn) [Compound 496]
< 100 | CC1(N)CCN(c2cnc(Sc3cccc(NC(=O)c4ccc(N5CCC(N6CCN(c7cnc(C(=O)NCc8ccc9c(c8)CN(C8CCC(=O)NC8=O)C9=O)cc7Cl)CC6)CC5)cc4F)c3)cn2)CC1 (stereo not drawn) [Compound 497]
100 to 1000 | CC1(N)CCN(c2cnc(Sc3cccc(NC(=O)c4ccc(N5CCC(N6CCN(c7ccc(C(=O)NCc8ccc9c(c8)CN(C8CCC(=O)NC8=O)C9=O)nn7)CC6)CC5)nn4)c3)cn2)CC1 (stereo not drawn) [Compound 498]
